Values of other authors as cited in US10517911B2, “Manufacturing methods, compositions, and medical applications of orally administered cannabis pharmaceuticals using representative/total/complete cannabis extractions (cannabis infused pills)” (priority 2016, dated 2019).

Legend:
[1] = target: COX-1 (Homo sapiens, UniProt P23219)
[2] = target: T1, COX-2 (Homo sapiens, UniProt P35354)
T1 sequence (P35354 18-604): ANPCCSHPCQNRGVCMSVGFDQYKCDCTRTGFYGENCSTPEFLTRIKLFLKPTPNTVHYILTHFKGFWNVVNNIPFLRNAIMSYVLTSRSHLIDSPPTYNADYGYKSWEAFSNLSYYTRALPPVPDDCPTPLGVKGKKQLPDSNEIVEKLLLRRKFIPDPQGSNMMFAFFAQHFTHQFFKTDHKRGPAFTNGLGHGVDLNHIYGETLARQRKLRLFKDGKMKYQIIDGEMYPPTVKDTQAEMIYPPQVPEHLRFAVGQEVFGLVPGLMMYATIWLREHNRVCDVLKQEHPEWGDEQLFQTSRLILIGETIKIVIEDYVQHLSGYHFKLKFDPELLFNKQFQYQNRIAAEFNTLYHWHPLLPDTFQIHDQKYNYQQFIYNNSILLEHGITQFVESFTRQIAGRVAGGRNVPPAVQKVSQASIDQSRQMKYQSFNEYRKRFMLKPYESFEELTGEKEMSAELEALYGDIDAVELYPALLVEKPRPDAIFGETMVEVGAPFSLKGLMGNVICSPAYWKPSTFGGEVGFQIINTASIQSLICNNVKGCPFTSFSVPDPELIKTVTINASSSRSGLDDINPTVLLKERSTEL

[3] = tested on: methicillin-resistant Staphylococcus aureus (MRSA)

Sequence of COX-1 (P23219 24-599): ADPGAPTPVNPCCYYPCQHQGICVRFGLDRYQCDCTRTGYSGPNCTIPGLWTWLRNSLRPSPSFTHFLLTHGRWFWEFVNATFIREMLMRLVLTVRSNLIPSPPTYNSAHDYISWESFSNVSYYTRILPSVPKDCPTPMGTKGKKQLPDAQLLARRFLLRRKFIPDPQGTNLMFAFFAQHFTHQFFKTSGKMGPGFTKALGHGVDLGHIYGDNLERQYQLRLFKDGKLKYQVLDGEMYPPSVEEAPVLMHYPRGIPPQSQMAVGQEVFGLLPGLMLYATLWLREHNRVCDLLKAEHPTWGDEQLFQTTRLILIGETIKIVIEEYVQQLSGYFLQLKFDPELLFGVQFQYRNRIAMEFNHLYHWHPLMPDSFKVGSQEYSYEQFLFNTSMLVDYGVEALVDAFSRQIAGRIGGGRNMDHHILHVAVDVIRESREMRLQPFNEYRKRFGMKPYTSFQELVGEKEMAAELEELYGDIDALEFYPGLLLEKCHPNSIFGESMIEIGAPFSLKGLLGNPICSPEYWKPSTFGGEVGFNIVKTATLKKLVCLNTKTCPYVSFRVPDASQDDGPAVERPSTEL

## CCCCCc1cc(O)c2c(c1)OC(C)(C)[C@@H]1CCC(C)=C[C@@H]21 [Tetrahydrocannabinol I, Tetrahydrocannabinol]
[1]
  COX-1 inhibition: no COX-1 or COX-2 inhibition
Times as effective as aspirin
  anti-inflammatory effectiveness relative to aspirin: 20 times
Times as effective as hydrocortisone
  anti-inflammatory effectiveness relative to hydrocortisone: 2 times
[2]
  COX-2 inhibition: no COX-1 or COX-2 inhibition

## C=C(C)[C@@H]1CCC(C)=C[C@H]1c1c(O)cc(CCCCC)cc1O [Cannabidiol]
[3]
  activity against methicillin-resistant Staphylococcus aureus (MRSA): powerful activity

## CCCCCc1cc(O)c2c(c1)OC(C)(C)c1ccc(C)cc1-2 [Cannabinol]
[3]
  activity against methicillin-resistant Staphylococcus aureus (MRSA): powerful activity
